From ChEMBL document CHEMBL5143655, “Synthesis and biological evaluation of 1,2,4-triazole derivatives as potential Nrf2 activators for the treatment of cerebral ischemic injury” (Eur J Med Chem, 2022)
pIC50: −log10 of the molar value. Calls of active or inactive are those of the source. The rule behind the calls is not given here.

Key:
[1] = Plasma protein binding in human plasma at 10 uM incubated for 6 hrs by LC-MS/MS based equilibrium dialysis method; format: ADME, cell-free; settings: read-out: PPB (converted)
[2] = Cytotoxicity against human HaCaT cells assessed as reduction in cell viability by MTT assay; format: toxicity, cell-based
[3] = Cytotoxicity against rat PC-12 cells assessed as reduction in cell viability by MTT assay; format: toxicity, cell-based
PC-12 [4] = assay: Neuroprotective activity against SNP induced rat PC-12 cells assessed as increase in cell viability at 1 uM preincubated for 2 hrs followed by SNP stimulation for 24 hrs by MTT assay relative to control; format: functional
[5] = Plasma protein binding in Sprague-Dawley rat plasma at 10 uM incubated for 6 hrs by LC-MS/MS based equilibrium dialysis method; format: ADME, cell-free; settings: read-out: PPB (converted)
[6] = Metabolic stability in human plasma assessed as parent compound remaining at 200 uM measured after 90 min by LC-MS/MS analysis relative to control; format: ADME, cell-free; settings: read-out: Stability
[7] = Metabolic stability in human plasma assessed as half life at 200 uM by LC-MS/MS analysis relative to control; format: ADME, cell-free
[8] = molecular target: Voltage-gated inwardly rectifying potassium channel KCNH2 (Homo sapiens, UniProt Q12809); assay: Inhibition of hERG channel expressed in HEK293 cells at -80 mV holding potential by automated patch clamp method; format: toxicity, cell-based
Voltage-gated inwardly rectifying potassium channel KCNH2, sequence (Q12809 whole entry): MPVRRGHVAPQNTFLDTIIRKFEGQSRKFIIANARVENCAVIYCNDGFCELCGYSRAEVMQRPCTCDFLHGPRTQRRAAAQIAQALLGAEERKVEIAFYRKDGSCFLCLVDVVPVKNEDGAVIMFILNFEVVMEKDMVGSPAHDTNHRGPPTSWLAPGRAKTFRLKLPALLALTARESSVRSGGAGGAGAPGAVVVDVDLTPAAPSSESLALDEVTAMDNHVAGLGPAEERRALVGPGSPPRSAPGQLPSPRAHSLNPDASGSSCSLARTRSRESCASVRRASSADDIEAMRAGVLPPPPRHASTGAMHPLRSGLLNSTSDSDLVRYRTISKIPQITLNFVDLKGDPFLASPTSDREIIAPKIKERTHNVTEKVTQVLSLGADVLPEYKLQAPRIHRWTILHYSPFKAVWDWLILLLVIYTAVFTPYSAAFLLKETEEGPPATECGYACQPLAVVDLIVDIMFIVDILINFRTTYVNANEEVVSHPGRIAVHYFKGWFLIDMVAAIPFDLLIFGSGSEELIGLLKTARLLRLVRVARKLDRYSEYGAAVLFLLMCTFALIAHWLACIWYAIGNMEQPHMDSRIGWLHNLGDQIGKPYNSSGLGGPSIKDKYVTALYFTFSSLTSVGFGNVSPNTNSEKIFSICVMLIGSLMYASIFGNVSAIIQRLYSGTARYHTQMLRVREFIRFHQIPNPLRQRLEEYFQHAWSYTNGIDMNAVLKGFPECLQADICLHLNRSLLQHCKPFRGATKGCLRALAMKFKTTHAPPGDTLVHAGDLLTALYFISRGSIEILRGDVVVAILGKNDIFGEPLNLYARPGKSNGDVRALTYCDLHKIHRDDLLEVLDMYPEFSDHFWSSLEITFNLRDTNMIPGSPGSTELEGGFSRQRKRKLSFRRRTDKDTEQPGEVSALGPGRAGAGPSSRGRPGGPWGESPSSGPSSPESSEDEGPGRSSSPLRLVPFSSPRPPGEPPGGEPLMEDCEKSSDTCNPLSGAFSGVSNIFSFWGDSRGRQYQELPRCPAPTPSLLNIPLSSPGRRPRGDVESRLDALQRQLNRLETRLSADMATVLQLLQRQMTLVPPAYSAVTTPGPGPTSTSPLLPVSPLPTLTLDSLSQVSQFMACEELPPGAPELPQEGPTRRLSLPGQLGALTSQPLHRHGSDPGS

[9] = Acute toxicity in BALB/c mouse assessed as survival rate at 175 mg/kg, ip measured after 7 days; format: organism-based; settings: in vivo, 168 h, time 7 day
[10] = Acute toxicity in BALB/c mouse assessed as survival rate at 550 mg/kg, ip measured after 7 days; format: organism-based; settings: in vivo, 168 h, time 7 day
[11] = Acute toxicity in BALB/c mouse assessed as survival rate at 1000 mg/kg, ip measured after 7 days; format: organism-based; settings: in vivo, 168 h, time 7 day
[12] = Tmax in Sprague-Dawley rat at 5 mg/kg, ip measured upto 24 hrs by LC-MS/MS analysis; format: ADME, organism-based; settings: in vivo
[13] = Tmax in Sprague-Dawley rat at 5 mg/kg, iv measured upto 24 hrs by LC-MS/MS analysis; format: ADME, organism-based; settings: in vivo
[14] = AUC (0 to infinity) in Sprague-Dawley rat at 5 mg/kg, iv measured upto 24 hrs by LC-MS/MS analysis; format: ADME, organism-based; parameters: dose 5 mg/kg, time < 24 hrs, route iv; settings: in vivo
[15] = Bioavailability in Sprague-Dawley rat at 5 mg/kg, ip measured upto 24 hrs by LC-MS/MS analysis; format: ADME, organism-based; settings: in vivo
[16] = MRT in Sprague-Dawley rat at 5 mg/kg, iv measured upto 24 hrs by LC-MS/MS analysis; format: ADME, organism-based; settings: in vivo
[17] = Half life in Sprague-Dawley rat at 5 mg/kg, ip measured upto 24 hrs by LC-MS/MS analysis; format: ADME, organism-based; settings: in vivo
[18] = Half life in Sprague-Dawley rat at 5 mg/kg, iv measured upto 24 hrs by LC-MS/MS analysis; format: ADME, organism-based; settings: in vivo
[19] = Clearence in Sprague-Dawley rat at 5 mg/kg, ip measured upto 24 hrs by LC-MS/MS analysis; format: ADME, organism-based; settings: in vivo
[20] = Clearence in Sprague-Dawley rat at 5 mg/kg, iv measured upto 24 hrs by LC-MS/MS analysis; format: ADME, organism-based; settings: in vivo
Rattus norvegicus [21] = assay: (§1) Neuroprotective activity in Sprague-Dawley rat model of middle cerebral artery occlusion-induced ischemia-reperfusion injury assessed as decrease in cerebral infarct volume at 3 mg/kg, ip preincubated for 1 hrs followed by MCAO operation and further incubated with compound for 4 hrs after reperfusion by TTC staining based assay; format: functional; parameters: scale not given: the % may be the effect or the level left; settings: time 5 hrs
Rattus norvegicus [22] = assay: as §1, with “10” for “3”; format: functional; parameters: scale not given: the % may be the effect or the level left; settings: time 5 hrs
PC-12 [23] = assay: Neuroprotective activity against SNP-induced apoptotic rat PC-12 cells assessed as restoration of cell morphology at 10 uM preincubated for 2 hrs followed by SNP stimulation for 24 hrs by Hoechst 33258 staining based fluorescence microscopic analysis; format: functional
PC-12 [24] = assay: Neuroprotective activity against SNP-induced oxidative stress in rat PC-12 cells assessed as inhibition of ROS accumulation at 10 uM preincubated for 2 hrs followed by SNP stimulation for 24 hrs by DCFH-DA staining based fluorescence microscopic analysis; format: functional, cell-based
PC-12 [25] = assay: Cytoprotective activity against SNP - induced oxidative stress in rat PC-12 cells assessed as restoration of mitochondrial membrane potential at 10 uM preincubated for 2 hrs followed by SNP stimulation for 24 hrs by JC-1 staining based fluorescence microscopic analysis; format: functional, cell-based
[26] = molecular target: T1, Nuclear factor erythroid 2-related factor 2 (Rattus norvegicus) (UniProt O54968); assay: Activation of Nrf2 pathway in rat PC-12 cells assessed as increase in HO-1 level at 2.5 to 10 uM measured after 3 hrs by Western blot analysis; format: cell-based; settings: filed as activator, dose 2.5-10 µM
T1 sequence (whole entry): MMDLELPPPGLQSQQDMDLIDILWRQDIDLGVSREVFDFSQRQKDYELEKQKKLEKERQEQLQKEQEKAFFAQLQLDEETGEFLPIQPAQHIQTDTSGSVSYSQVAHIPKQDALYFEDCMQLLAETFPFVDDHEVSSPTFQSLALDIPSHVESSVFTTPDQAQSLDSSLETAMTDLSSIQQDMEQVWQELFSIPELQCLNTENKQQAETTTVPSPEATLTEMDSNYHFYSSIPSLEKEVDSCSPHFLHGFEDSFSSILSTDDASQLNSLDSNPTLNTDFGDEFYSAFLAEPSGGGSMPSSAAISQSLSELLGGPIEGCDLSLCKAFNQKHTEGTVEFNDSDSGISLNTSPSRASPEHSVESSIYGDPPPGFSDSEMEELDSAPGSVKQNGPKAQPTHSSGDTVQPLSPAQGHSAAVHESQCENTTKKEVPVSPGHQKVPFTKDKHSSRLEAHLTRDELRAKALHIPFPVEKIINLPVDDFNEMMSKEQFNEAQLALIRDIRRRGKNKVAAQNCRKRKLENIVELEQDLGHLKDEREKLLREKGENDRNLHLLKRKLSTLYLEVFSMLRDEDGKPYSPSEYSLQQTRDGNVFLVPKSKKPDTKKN

[27] = molecular target: T1, Nuclear factor erythroid 2-related factor 2 (Rattus norvegicus); assay: Activation of Nrf2 pathway in rat PC-12 cells assessed as increase in NQO1 level at 2.5 to 10 uM measured after 3 hrs by Western blot analysis; format: cell-based; settings: filed as activator, dose 2.5-10 µM
[28] = molecular target: T1, Nuclear factor erythroid 2-related factor 2 (Rattus norvegicus); assay: Activation of Nrf2 pathway in rat PC-12 cells assessed as increase in GCLC level at 2.5 to 10 uM measured after 3 hrs by Western blot analysis; format: cell-based; settings: filed as activator, dose 2.5-10 µM
Rattus norvegicus [29] = assay: Neuroprotective activity in Sprague-Dawley rat model of middle cerebral artery occlusion-induced ischemia-reperfusion injury assessed as attenuation of behavioral deficit at 30 mg/kg, ip preincubated for 1 hrs followed by MCAO operation and further incubated with compound for 4 hrs after reperfusion; format: functional; settings: time 5 hrs
[30] = molecular target: T1, Nuclear factor erythroid 2-related factor 2 (Rattus norvegicus); assay: Activation of Nrf2 pathway in rat PC-12 cells assessed as reversal of ML385 induced inhibition of Nrf2 protein expression at 10 uM measured after 3 hrs in the presence of Nrf2 signalling inhibitor ML385 by Western blot analysis; format: cell-based; settings: filed as activator
[31] = molecular target: T1, Nuclear factor erythroid 2-related factor 2 (Rattus norvegicus); assay: Activation of Nrf2 pathway in rat PC-12 cells assessed as decrease in Nrf2 accumulation in cytoplasm at 0.5 to 10 uM measured after 3 hrs by Western blot analysis; format: cell-based; settings: filed as activator, dose 0.5-10 µM

## Cc1cc(C)cc(-n2nc(-c3ccc(C(F)(F)F)cc3O)nc2-c2ccccc2O)c1
[1]
  fraction unbound at 6 h, 10 µM: 0.0006
[2]
  pIC50: 3.90
[3]
  pIC50: 3.58
PC-12 [4]
  Activity: 76.86%
[5]
  fraction unbound at 6 h, 10 µM: 0.0008
[6]
  remaining at 1.5 h, 200 µM: 89.5%
[7]
  half-life at 200 µM: > 8.82 h
[8]
  pIC50: < 4.52
[9]
  Activity: Non-Toxic
[10]
  Activity: Non-Toxic
[11]
  Activity: Toxic
[12]
  Tmax: 2 h
[13]
  Tmax: 4.8 min
[14]
  AUC(0-inf): 10200 ng·h/mL
[15]
  bioavailability: 28.8%
[16]
  MRT: 2.84 h
[17]
  half-life: 12.8 h
[18]
  half-life: 8.26 h
[19]
  CL: 0.0017 (mg/kg)/(ng/ml)/hr
[20]
  CL: 0.0005 (mg/kg)/(ng/ml)/hr
Rattus norvegicus [21]
  Activity: 16.37%
Rattus norvegicus [22]
  Activity: 14.49%
PC-12 [23]
  Activity: Active
PC-12 [24]
  Activity: Active
PC-12 [25]
  Activity: Active
[26]
  Activity: Active
[27]
  Activity: Active
[28]
  Activity: Active
Rattus norvegicus [29]
  Activity: 1.5
[30]
  Activity: Active
[31]
  Activity: Active
